Active and inactive are the calls of the source. The rule behind the calls is not given here.
What was measured:
[1] = molecular target: Estrogen receptor beta (Homo sapiens) (UniProt Q92731); assay: Displacement of E2-Alexa633 from GFP-tagged ERbeta expressed in COS7 cells at 1 uM by FACS; format: cell-based; settings: COS-7
[2] = molecular target: Estrogen receptor beta (Homo sapiens) (UniProt Q92731); assay: Agonist activity at GFP-tagged ERbeta expressed in COS7 cells assessed as PI3K activation at 10 nM by PIP3 nuclear accumulation assay; format: functional, cell-based; settings: COS-7

Chain of Estrogen receptor beta (Homo sapiens) (Q92731 whole entry): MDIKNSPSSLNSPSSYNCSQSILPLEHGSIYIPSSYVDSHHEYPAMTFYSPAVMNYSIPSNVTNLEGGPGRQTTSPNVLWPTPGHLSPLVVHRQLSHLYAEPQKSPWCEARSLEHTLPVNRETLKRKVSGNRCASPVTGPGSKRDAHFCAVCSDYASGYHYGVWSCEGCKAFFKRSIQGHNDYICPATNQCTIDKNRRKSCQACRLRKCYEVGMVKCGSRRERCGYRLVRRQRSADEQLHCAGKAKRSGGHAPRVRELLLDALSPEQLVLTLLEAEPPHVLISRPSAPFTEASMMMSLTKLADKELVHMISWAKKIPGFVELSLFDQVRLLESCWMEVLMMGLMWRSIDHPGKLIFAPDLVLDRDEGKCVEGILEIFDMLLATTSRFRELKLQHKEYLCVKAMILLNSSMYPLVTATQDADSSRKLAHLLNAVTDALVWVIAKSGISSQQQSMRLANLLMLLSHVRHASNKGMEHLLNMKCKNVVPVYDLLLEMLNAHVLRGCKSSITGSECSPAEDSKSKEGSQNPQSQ

CC(=O)c1ccc2c(c1)[C@@H]1C=CC[C@@H]1[C@H](c1cc3c(cc1Br)OCO3)N2
Activity [1]: inactive
Activity [2]: inactive

From ChEMBL document CHEMBL1221181, “Virtual and biomolecular screening converge on a selective agonist for GPR30” (Nat Chem Biol, 2006)
